This is an account of results in publication PMC10674657, “Quinazolin-4-one/3-cyanopyridin-2-one Hybrids as Dual Inhibitors of EGFR and BRAF^V600E: Design, Synthesis, and Antiproliferative Activity” (Pharmaceuticals, 2023).

By IC50 is commonly meant the point on the concentration scale where inhibition reaches its midpoint. In general, GI50 refers to the concentration that inhibits growth by half.

The test system of series [1] is four cancer cell lines (A-549, MCF-7, Panc-1, HT-29). The series can be described thus: Antiproliferative assay, average over four cancer cell lines (GI50). The settings on record: read-out: Average IC50 (GI50); average of IC50 against four cancer cell lines.
Protocol: (§1) For a rigorous assessment, the widely accepted MTT assay [63, 64] was employed. Using Doxorubicin, a well-established drug, as the reference standard ensures a benchmark for the synthesized compounds, allowing a contextual understanding of their efficacy.
(§2) The MTT assay [63, 64] was employed for this assessment, with Doxorubicin as the reference drug.
(§3) 24h followed by the addition of synthesized compounds (in 200 μL medium to yield a final concentration of 0.1% (v/v) dimethyl sulfoxide) into individual wells of the plates. Four wells were designated to a single compound. The plates were allowed to incubate at 37°C for 96 h. After wards, the medium was aspirated and 3-[4,5-dimethylthiazol-2-yl]-2,5-diphenyltetrazolium bromide (MTT) (0.4 mg/mL) in medium was added to each well and subsequently incubated for 3 h. The medium was aspirated and 150 μL dimethyl sulfoxide (DMSO) was added to each well.
(§4) The plates were vortexed followed by the measurement of absorbance at 540 nm on a microplate
Series [2] relates to A-549 human lung carcinoma cell line. The series can be described thus: Antiproliferative assay, A-549. The settings on record: read-out: Antiproliferative Activity IC50 ± SEM, A-549; mean ± SEM.
Protocol: as §1, §2, §3, §4
The test system of the next series is MCF-10A cells. The series can be described thus: Cell viability (cytotoxicity) MTT assay in non-tumorigenic MCF-10A cells. The format is cell-based, human. The settings on record: 50 µM, 4 days. Background: Tetrazolium assays rely on reduction of a dye to a coloured formazan, in cell work by metabolically active cells.
In series [3] the test system is HT-29 human colon cancer cell line. The series can be described thus: Antiproliferative assay, HT-29. The settings on record: read-out: Antiproliferative Activity IC50 ± SEM, HT-29; mean ± SEM.
Protocol: as §1, §2, §3, §4
In series [4] the test system is MCF-7 human breast adenocarcinoma cell line. The series can be described thus: Antiproliferative assay, MCF-7. The settings on record: read-out: Antiproliferative Activity IC50 ± SEM, MCF-7; mean ± SEM.
Protocol: as §1, §2, §3, §4
Series [5] has as its system Panc-1 human pancreatic cancer cell line. The series can be described thus: Antiproliferative assay, Panc-1. The settings on record: read-out: Antiproliferative Activity IC50 ± SEM, Panc-1; mean ± SEM.
Protocol: as §1, §2, §3, §4
The subject of series [6] is cancer cell proliferation. The settings on record: cited from earlier work.
A further series has as its system BRAF^V600E. The settings on record: cited from earlier work.
In another series the target is EGFR (Homo sapiens, UniProt P00533). Also on record: acids645–1186; His6 (N); made in house; host or cells: Sf-9 insect cells (baculovirus; pBlueBacHis2B / pFASTBacHTc). The settings on record: cited from earlier work.
EGFR, sequence (P00533 669-1210): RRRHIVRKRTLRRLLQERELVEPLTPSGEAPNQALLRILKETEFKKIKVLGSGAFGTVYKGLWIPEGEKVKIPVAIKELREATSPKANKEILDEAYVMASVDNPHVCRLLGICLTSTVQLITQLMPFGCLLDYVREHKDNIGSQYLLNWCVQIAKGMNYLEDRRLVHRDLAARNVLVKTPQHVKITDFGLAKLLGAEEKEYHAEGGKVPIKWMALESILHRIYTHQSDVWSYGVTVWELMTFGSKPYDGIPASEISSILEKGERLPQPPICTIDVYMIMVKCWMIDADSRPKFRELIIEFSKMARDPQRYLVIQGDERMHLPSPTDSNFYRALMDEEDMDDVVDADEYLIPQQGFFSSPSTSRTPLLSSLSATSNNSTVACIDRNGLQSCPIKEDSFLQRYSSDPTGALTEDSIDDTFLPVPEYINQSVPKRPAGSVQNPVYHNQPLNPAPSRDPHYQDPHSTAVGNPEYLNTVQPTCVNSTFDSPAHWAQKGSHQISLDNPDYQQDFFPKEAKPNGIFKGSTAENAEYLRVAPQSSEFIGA

For “2-((3-Allyl-4-oxo-3,4-dihydroquinazolin-2-yl)thio)-N-(4-(4-(4-bromophenyl)-4-cyano-6-oxo-1,6-dihydropyridin-2-yl)phenyl)acetamide [Compound 20]”, the IC50 was found to be 2000 nM in series [1]; 2000 ± 100 nM in series [2]; 2100 ± 100 nM in series [3]; 1800 ± 100 nM in series [4]; 2100 ± 100 nM in series [5]. Also, the “Cell Viability %” value with MCF-10A cells was found to be 91%.

`COc1ccc(-c2cc(-c3ccc(OC)c(OC)c3)n(CC(=O)Nc3ccc(C4=NNC(c5ccc(OC)c(OC)c5)C4)cc3)c(=O)c2C#N)cc1OC` (stereo not drawn) [III]: the 50% growth inhibitory concentration (GI50) in [6] is 25 nM. In addition, the IC50 in the series with BRAF^V600E is 65 nM.

Regarding `C=CCn1c(SCC(=O)Nc2cccc(C(=O)/C=C/c3ccc(OC)cc3)c2)nc2ccccc2c1=O` [II], the IC50 on EGFR was 110 nM; in the series with BRAF^V600E, 650 nM.

Take `COc1ccc(/C=C/C(=O)c2ccc(NC(=O)Cn3c(-c4ccc(OC)c(OC)c4)cc(-c4ccc(OC)c(OC)c4)c(C#N)c3=O)cc2)cc1` [IV]: in [6], the GI50 is 720 nM. Also, in the series on BRAF^V600E, the IC50 was 58 nM.
